# Results taken from patent US9309198B2, “N-[3-(2-carboxyethyl)phenyl]piperidin-1-ylacetamide derivatives and use thereof as activators of soluble guanylate cyclase” (Bayer Pharma Aktiengesellschaft, priority 2012, dated 2016).
# Structures can show the parent of a compound that is named as a salt.
# Biological target: T1, recombinant guanylate cyclase reporter cell line (sGC, CHO reporter cell) (Rattus norvegicus, UniProt P20595)
# T1 construct: expressed in transfected cells; host or cells: CHO reporter cell line
# T1 sequence (P20595 1-619): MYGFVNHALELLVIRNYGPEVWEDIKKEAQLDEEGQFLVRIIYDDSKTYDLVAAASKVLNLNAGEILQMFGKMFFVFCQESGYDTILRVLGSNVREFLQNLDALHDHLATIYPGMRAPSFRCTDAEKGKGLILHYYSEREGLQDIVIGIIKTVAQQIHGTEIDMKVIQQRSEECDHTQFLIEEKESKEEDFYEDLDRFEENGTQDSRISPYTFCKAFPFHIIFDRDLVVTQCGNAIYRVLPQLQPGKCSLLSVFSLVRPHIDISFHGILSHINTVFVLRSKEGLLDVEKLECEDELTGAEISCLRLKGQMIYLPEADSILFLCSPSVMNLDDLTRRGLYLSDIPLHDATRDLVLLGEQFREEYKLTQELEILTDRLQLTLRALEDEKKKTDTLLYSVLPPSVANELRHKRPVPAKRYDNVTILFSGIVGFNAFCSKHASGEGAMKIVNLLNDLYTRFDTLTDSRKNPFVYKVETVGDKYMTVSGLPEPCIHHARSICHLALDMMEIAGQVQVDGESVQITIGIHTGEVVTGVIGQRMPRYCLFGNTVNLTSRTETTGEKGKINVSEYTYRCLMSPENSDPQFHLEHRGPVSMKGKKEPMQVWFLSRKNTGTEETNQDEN
# T1 sequence (P19686 1-690 partner): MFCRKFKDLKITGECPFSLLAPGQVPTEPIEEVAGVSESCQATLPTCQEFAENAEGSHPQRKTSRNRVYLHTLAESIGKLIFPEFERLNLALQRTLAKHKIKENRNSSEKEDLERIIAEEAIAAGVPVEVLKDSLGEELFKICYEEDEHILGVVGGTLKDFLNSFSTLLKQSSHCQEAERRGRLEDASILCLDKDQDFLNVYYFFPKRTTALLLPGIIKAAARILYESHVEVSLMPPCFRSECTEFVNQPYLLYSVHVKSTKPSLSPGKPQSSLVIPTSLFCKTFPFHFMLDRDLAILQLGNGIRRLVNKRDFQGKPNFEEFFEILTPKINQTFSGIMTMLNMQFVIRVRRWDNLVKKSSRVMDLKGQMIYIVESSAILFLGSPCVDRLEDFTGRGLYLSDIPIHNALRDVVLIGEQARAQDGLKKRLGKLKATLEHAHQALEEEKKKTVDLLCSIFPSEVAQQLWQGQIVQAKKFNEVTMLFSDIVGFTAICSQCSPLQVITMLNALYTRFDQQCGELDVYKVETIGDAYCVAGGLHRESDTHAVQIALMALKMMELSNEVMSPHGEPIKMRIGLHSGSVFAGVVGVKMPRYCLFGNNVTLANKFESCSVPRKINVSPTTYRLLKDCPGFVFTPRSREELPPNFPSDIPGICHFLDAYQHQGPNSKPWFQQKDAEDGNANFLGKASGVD
# Assay: Effect on a recombinant guanylate cyclase reporter cell line (CHO reporter cell)
# Assay type: cell-based
# Procedure: B-2. Effect on a Recombinant Guanylate Cyclase Reporter Cell Line The cellular activity of the compounds according to the invention is determined using a recombinant guanylate cyclase reporter cell line, as described in F. Wunder et al., Anal. Biochem. 339, 104-112 (2005).
row,Structure (SMILES),"MEC (minimum effective concentration), sGC-activating activity in the CHO reporter cell in vitro [nM]"
1,"CC1CCN(C(C(=O)Nc2cc(CCC(=O)O)ccc2Cl)C(C)C(F)(F)F)CC1 (racemic) [Example 1, 3-(4-Chloro-3-{[4,4,4-trifluoro-3-methyl-2-(4-methylpiperidin-1-yl)butanoyl]amino}phenyl)propanoic acid]",20
2,"CC1CCN(C(C(=O)Nc2cc(CC3(C(=O)O)CC3)ccc2F)C(C)C(F)(F)F)CC1 (single isomer, unassigned) [Example 4, 1-(4-fluoro-3-{[4,4,4-trifluoro-3-methyl-2-(4-methylpiperidin-1-yl)butanoyl]amino}benzyl)cyclopropanecarboxylic acid]",5
3,"CC1CCN(C(C(=O)Nc2cc(CCC(=O)O)ccc2F)C(C)C(F)(F)F)CC1 (single isomer, unassigned) [Example 6, 3-(4-fluoro-3-{[4,4,4-trifluoro-3-methyl-2-(4-methylpiperidin-1-yl)butanoyl]amino}phenyl)propanoic acid]",60
4,"CCC1CCN(C(C(=O)Nc2cc(CCC(=O)O)ccc2F)C(C)C(F)(F)F)CC1 (single isomer, unassigned) [Example 9, 3-(3-{[2-(4-ethylpiperidin-1-yl)-4,4,4-trifluoro-3-methylbutanoyl]amino}-4-fluorophenyl)propanoic acid]",10
5,"CCC1CCN([C@H](C(=O)Nc2cc(CC3(C(=O)O)CC3)ccc2F)[C@H](C)C(F)(F)F)CC1 (single isomer, unassigned) [Example 38]",300
6,"CCC1CCN([C@H](C(=O)Nc2cc(CCC(=O)O)ccc2F)[C@H](C)C(F)(F)F)CC1 (single isomer, unassigned) [Example 40]",1000
7,"CC1CCN([C@H](C(=O)Nc2cc(CCC(=O)O)ccc2Cl)[C@H](C)C(F)(F)F)CC1 (single isomer, unassigned) [Example 42]",300

# More lines, now with the values ahead:
row,"MEC (minimum effective concentration), sGC-activating activity in the CHO reporter cell in vitro [nM]",Structure (SMILES)
1,3000,"COC1CCN(C(C(=O)Nc2cc(CC3(C(=O)O)CC3)ccc2F)C2CCCC2)CC1 (racemic) [Example 52, rac-1-(3-{[Cyclopentyl(4-methoxypiperidin-1-yl)acetyl]amino}-4-fluorobenzyl)cyclopropanecarboxylic acid trifluoroacetate]"
2,20,"CC(C(C(=O)Nc1cc(CC2(C(=O)O)CC2)ccc1F)N1CCCCC1)C(F)(F)F (single isomer, unassigned) [Example 2, 1-(4-fluoro-3-{[4,4,4-trifluoro-3-methyl-2-(piperidin-1-yl)butanoyl]amino}benzyl)cyclopropanecarboxylic acid]"
3,30,"CC1CCN(C(C(=O)Nc2cc(CCC(=O)O)ccc2Cl)C(C)C(F)(F)F)CC1 (single isomer, unassigned) [Example 13, 3-(4-chloro-3-{[4,4,4-trifluoro-3-methyl-2-(4-methylpiperidin-1-yl)butanoyl]amino}phenyl)propanoic acid]"
4,10,"CCC1CCN([C@@H](C(=O)Nc2cc(CCC(=O)O)ccc2F)[C@@H](C)C(F)(F)F)CC1 (single isomer, unassigned) [Example 41]"
5,10,"CC1CCN([C@@H](C(=O)Nc2cc(CCC(=O)O)ccc2Cl)[C@@H](C)C(F)(F)F)CC1 (single isomer, unassigned) [Example 43]"
6,1000,"CCC1CCN([C@H](C(=O)Nc2cc(CCC(=O)O)ccc2Cl)[C@H](C)C(F)(F)F)CC1 (single isomer, unassigned) [Example 44]"
7,3,"CCC1CCN([C@@H](C(=O)Nc2cc(CCC(=O)O)ccc2Cl)[C@@H](C)C(F)(F)F)CC1 (single isomer, unassigned) [Example 45]"
